Each block holds one compound with its values, some of them ahead of it.
Experiments:
[1] = test system: tau; test: Tau-reducing-guided fractionation study of Myrica cerifera (tau destabilizer activity); format: cell-based; conditions: read-out: IC50 as tau destabilizer agent
Procedure: The bayberry root-bark powder (5×1 kg) was extracted with 5×2 L of toluene under agitation in a (5×) flask protected from light (3×24 h). The filtrate was concentrated and gave 58 g of extract. The toluene extract was purified using silica gel MPLC, eluting with a gradient of 0 to 40% ethyl acetate/hexanes to yield 27 g of (+)-aR,11S-myricanol [α]D^21=48.2 (c=1.1, Chloroform).

[2] = test system: tau; test: Tau level reduction in HeLa cells stably transfected with tau treated with myricanol derivatives; format: cell-based; conditions: for reduction of levels of tau proteins: summary statement
Procedure: To assess the effects of the aqueous bayberry extract on overexpressed and endogenous tau levels, HeLa cells stably transfected with tau were treated with the myricanol derivatives.

[3] = Table 1, tau-reducing activity, result in words
[4] = HeLa cells stably transfected with tau

- IC50 [1]: 35 µM
Compound: COc1c2cc(c(O)c1OC)CCCC[C@H](O)CCc1ccc(O)c-2c1 [Compound 1, Myricanol]
- Results [2, 3]: moderate activity

Compound: O=C(/C=C/c1ccc(O)cc1)CC(=O)/C=C/c1ccc(O)cc1 [Compound 10, Bisdemethoxycurcumin]
- Results [2, 4]: active
- Results [2, 3]: active

Compound: CCCCCCCCC[C@H](O)CC(=O)CCc1ccc(O)c(OC)c1 [Compound 11, [10]-Gingerol]
- Results [2, 4]: active
- Results [2, 3]: Active

Compound: COc1c2cc(c(O)c1OC)CCC/C=C/CCc1ccc(O)c-2c1 [Compound 18, Myricacene A (trans)]
- Results [2, 4]: active
- Results [2, 3]: active

Compound: COc1c2cc(c(O)c1OC)CCCC/C=C/Cc1ccc(O)c-2c1 [Compound 19, Myricacene B (trans)]
- Results [2, 4]: active
- Results [2, 3]: active

Compound: COc1c2cc(c(O)c1OC)CCC/C=C\CCc1ccc(O)c-2c1 [Compound 21, Myricacene A (cis)]
- Results [2, 4]: moderately active
- Results [2, 3]: moderately active

Compound: COc1c2cc(c(O)c1OC)CCCC/C=C\Cc1ccc(O)c-2c1 [Compound 22, Myricacene B (cis)]
- Results [2, 4]: active
- Results [2, 3]: active
- tau-reducing activity, dose-dependent bioassay ([2]; concentration of 20 μg/mL): potent tau-reducing compound
- reduction of levels of tau proteins [2]: potently reduce levels of tau proteins

Compound: COc1cc2c(c(O)c1OC)CCCC1CCCc3ccc(O)c-2c31 (stereo not drawn) [Compound 23]
- Results [2, 4]: very active
- Results [2, 3]: very active
- reduction of levels of tau proteins [2]: potently reduce levels of tau proteins
- reduction of protein tau levels, time-dependent bioassay ([2]; treatment of HeLa cells for 24 hours): potently reduces protein tau levels

Compound: COc1c2cc(c(O)c1OC)CCCCC1CCc3ccc(O)c-2c31 (stereo not drawn) [Compound 24]
- Results [2, 4]: active
- Results [2, 3]: active

Compound: Demethoxycurcumin [Compound 9]
- Results [2, 4]: active
- Results [2, 3]: active

Reference: US10358405B2, “Myricanol derivatives and uses thereof for treatment of neurodegenerative diseases” (UNIVERSITY OF SOUTH FLORIDA, priority 2012, dated 2019)
